Laboratory results from US20150004126A9, “COMPOSITIONS” (GIVAUDAN S.A., priority 2011, published 2015).

Assays:
[1] = Solubility in a cyclodextrin-containing fabric refreshener; assay type: physicochemical; details: at 0.1%
[2] = molecular target: N-alpha acyl glutamine aminoacylase (Corynebacterium striatum, UniProt Q8GGD4); assay: Malodour generated on cloth with enzyme and HMHA sweat precursor, assessed by a panel; assay type: biochemical, Corynebacteria; details: 0.1% compound in respective test products (un-fragranced base, fragranced base, Febreze) on polycotton cloth with HMHA precursor and enzyme, 37° C. 30 min; panel scale 0-10; vs untreated control
Chain of N-alpha acyl glutamine aminoacylase (Q8GGD4 whole entry): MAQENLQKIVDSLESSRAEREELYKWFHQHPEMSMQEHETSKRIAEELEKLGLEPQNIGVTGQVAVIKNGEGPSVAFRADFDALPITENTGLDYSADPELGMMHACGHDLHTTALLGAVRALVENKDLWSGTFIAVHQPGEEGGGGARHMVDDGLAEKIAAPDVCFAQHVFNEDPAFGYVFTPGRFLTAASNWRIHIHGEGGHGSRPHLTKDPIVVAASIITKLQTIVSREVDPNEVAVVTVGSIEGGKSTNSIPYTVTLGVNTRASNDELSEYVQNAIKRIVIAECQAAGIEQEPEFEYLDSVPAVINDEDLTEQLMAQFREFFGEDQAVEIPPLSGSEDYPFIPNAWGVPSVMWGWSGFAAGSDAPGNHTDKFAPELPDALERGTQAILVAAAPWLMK
From the text: The objective of the study is to measure the effectiveness of malodour-counteracting compounds for use in the present invention at reducing malodour generated on cloth in the presence of the enzyme N-alpha acyl glutamine aminoacylase, and the sweat precursor for the malodorous fatty acid 3-methyl-3-hydroxy-hexanoic acid (HMHA). The aim is to achieve a significant reduction in malodour on cloth against: • a) an untreated fabric • b) a marketed fabric freshener, namely Spring & Renewal Febreze®.
140 μg of odourless precursor for HMHA (equivalent to 15 minutes of physical exercise) is dissolved in 125 μl of 12% ethanol/88% water and applied to 12.5 cm2 polycotton (40/60 mix) cloth in a 30 ml Beatson jar.
The cloth was allowed to dry completely in a 40° C. oven before checking for residual malodour.
Thereafter, the cloth was moistened with 125 μl of a solution containing 0.33 μg/ml of the enzyme N-α-acyl glutamine aminoacylase in 50 mM phosphate buffer pH 6 and the treated cloth was allowed to incubate in a glass jar at 37° C. for 30 minutes.
Thereafter a few drops of a 10% concentration of HCL were added to protonate the acids.
Malodour was assessed by a panel on a scale of 0 (nothing)-10 (very strong)
Malodour precursor was applied to cloth as described above and the cloth allowed to dry in an oven at 40° C.
125 μl of each of the following solutions was applied on to polycotton cloth already containing the precursor and allowed to dry in a 40° C. oven:
0.1% of the Compounds (I), (II), and (III) defined above (hereinafter referred to generally as “compound”), dissolved in an un-fragranced in-house fabric refresher base 0.1% of each compound dissolved in a fragranced fabric refresher base fragranced with a 0.05% of a proprietary fragrance having a floral-green-aldehyde odour (hereinafter “fragrance”).
0.1% of each inhibitor dissolved in a Febreze(r) Market product (Spring & Renewal) […]

What does the source list for `CCCCC(CC)CNC(=O)N[C@@H](CCC(N)=O)C(=O)O` (stereo partly drawn) [Compound III]?
solubility in a cyclodextrin-containing fabric refreshener [1]: soluble; malodour reduction compared with the control [2]: clear and significant malodour reduction

For `CC(CCOC(=O)NC(CCC(N)=O)C(=O)O)CCc1ccccc1` (stereo not drawn) [Compound II], which “solubility in a cyclodextrin-containing fabric refreshener” value [1] is on record?
Its value is “soluble”.

What about the “malodour reduction compared with the control” value [2] of the same molecule?
The value was “clear and significant malodour reduction”.

Which “solubility in a cyclodextrin-containing fabric refreshener” value [1] does the source give for `NC(=O)CC[C@H](NC(=O)OCc1ccccc1)C(=O)O` [Compound I] here?
Its value is “soluble”.

And the “malodour reduction compared with the control” value [2]?
The value was “clear and significant malodour reduction”.
